Where two headings read alike, the source gives them in different places. A value given as a limit tells only on which side of the number the result lay.

Holding throughout (test): biochemical
What all share (parameters): SPR, steady-state binding to immobilised biotinylated UBD proteins

One assay addresses T1, USP13 (Homo sapiens, UniProt Q92995).
T1 construct: UBD, residues 183-307
T1 sequence (Q92995 1-863): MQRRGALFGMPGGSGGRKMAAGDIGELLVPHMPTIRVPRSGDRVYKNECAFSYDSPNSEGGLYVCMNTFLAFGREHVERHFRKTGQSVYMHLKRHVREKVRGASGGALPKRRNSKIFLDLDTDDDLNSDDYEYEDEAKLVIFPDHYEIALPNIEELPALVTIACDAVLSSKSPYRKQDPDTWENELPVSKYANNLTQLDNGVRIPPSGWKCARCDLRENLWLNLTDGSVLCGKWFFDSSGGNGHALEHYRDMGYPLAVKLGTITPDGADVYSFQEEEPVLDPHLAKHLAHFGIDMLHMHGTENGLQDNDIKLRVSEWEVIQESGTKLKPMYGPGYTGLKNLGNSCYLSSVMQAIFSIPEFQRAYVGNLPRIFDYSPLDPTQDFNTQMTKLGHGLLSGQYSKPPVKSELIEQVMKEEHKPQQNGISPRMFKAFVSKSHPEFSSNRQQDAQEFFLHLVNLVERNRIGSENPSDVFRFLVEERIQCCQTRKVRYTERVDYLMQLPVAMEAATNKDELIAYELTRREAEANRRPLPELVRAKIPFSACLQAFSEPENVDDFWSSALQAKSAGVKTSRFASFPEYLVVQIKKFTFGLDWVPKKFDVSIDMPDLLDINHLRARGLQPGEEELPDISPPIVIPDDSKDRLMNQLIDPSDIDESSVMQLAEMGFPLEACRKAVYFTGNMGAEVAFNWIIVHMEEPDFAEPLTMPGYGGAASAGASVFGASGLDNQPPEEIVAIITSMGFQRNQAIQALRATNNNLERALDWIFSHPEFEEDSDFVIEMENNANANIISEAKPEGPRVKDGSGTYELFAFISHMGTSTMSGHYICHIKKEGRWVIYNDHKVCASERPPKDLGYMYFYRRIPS

In the next assay the target is T2, USP3 (Homo sapiens, UniProt Q9Y6I4).
T2 sequence (Q9Y6I4 1-520): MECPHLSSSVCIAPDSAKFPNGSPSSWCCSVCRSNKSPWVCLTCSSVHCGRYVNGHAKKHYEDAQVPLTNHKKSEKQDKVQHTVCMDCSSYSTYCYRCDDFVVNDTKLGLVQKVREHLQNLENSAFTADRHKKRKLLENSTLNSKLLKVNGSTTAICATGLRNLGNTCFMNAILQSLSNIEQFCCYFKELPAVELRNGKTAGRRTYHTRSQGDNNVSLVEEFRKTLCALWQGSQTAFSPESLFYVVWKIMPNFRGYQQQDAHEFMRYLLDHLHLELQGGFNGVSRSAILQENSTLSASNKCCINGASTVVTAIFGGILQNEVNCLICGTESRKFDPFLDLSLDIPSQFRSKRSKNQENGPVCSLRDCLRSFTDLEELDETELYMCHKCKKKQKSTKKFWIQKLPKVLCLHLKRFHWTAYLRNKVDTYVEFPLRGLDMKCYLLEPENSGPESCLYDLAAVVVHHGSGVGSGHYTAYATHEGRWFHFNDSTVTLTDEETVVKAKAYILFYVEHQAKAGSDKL

The next assay addresses T3, USP49 (Homo sapiens, UniProt Q70CQ1).
T3 construct: UBD, residues 1-115
T3 sequence (Q70CQ1 1-688): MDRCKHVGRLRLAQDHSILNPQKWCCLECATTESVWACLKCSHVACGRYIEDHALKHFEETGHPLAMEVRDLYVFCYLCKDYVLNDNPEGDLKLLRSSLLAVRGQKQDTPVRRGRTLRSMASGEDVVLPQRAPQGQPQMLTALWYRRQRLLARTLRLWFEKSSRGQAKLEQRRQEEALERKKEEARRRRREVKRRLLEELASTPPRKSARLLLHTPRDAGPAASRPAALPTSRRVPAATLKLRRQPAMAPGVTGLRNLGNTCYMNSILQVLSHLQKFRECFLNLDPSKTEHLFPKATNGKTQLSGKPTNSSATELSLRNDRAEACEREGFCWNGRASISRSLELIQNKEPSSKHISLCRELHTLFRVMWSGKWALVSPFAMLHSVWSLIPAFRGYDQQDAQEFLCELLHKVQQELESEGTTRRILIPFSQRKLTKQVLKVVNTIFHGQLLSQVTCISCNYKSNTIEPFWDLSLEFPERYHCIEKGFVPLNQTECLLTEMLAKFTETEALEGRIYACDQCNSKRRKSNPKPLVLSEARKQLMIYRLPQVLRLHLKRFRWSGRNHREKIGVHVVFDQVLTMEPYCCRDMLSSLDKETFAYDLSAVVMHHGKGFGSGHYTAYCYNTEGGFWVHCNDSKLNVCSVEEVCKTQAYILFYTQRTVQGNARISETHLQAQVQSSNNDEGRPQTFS

The mark [1] stands for this setting: read-out: Probe KD (nM) SGC-UBD1031.
The mark [2] stands for this setting: read-out: Negative Control KD (nM) SGC-UBD1031N.

Take `C[C@H](NC(=O)Cn1c(CCC(=O)O)nc2c(Cl)cccc2c1=O)c1c(F)cccc1F` [compound 15, (S)-3-(8-chloro-3-(2-((1-(2,6-difluorophenyl)ethyl)amino)-2-oxoethyl)-4-oxo-3,4-dihydroquinazolin-2-yl)propanoic acid]: the Kd (in general, a measure of binding affinity in units of concentration) is > 10000 nM on USP13 (setting [1]), > 10000 nM at USP3 (setting [1]) and 7500 ± 870 nM at USP49 (setting [1]).
Regarding `C[C@@H](NC(=O)Cn1c(CCC(=O)O)nc2c(Cl)cccc2c1=O)c1c(F)cccc1F` [compound 16, (R)-3-(8-chloro-3-(2-((1-(2,6-difluorophenyl)ethyl)amino)-2-oxoethyl)-4-oxo-3,4-dihydroquinazolin-2-yl)propanoic acid], the Kd on USP13 (setting [2]) is > 10000 nM; on USP3 (setting [2]), 8700 ± 1800 nM; at USP49 (setting [2]) it was 6700 ± 2100 nM.

The values above are taken from publication doi:10.1101/2025.10.23.684218v2, “Development of a dual chemical probe for the USP16 and HDAC6 zinc-finger ubiquitin-binding domain” (biorxiv, 2025).
